Laboratory results taken from the Kinase Knowledgebase extract (Sharma et al. 2016).

Biological target: MAPK14 (human) (UniProt Q16539)
Assay: TNF-alpha Release Inhibition (LPS-stimulated PBMCs)
Details: pbmc

MAPK14 (human), sequence (Q16539 whole entry, looked up): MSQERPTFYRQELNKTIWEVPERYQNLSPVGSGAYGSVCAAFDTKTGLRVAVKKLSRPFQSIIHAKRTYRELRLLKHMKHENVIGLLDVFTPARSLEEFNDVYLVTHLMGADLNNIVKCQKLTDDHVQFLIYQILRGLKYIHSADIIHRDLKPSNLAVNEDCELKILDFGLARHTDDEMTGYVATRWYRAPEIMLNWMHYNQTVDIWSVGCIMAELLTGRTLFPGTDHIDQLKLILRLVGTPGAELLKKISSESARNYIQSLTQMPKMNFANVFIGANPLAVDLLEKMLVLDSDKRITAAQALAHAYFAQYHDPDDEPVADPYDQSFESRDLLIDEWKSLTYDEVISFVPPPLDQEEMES

Compound | IC50
Nc1ccc2c(-c3ccncc3)c(-c3ccc(F)cc3)[nH]c2c1 | 200 nM
COc1ccc2c(-c3ccncc3)c(-c3cccc(F)c3)[nH]c2c1 | 300 nM
Oc1ccc2c(-c3ccncc3)c(-c3ccc(F)cc3)[nH]c2n1 | > 10000 nM
COc1ccc2c(-c3ccncc3)c(-c3ccc(F)cc3)[nH]c2n1 | 200 nM
Fc1ccc(-c2[nH]c3ncccc3c2-c2ccncc2)cc1 | 400 nM
Fc1ccc(-c2[nH]c3ccccc3c2-c2ccncc2)cc1 | > 10000 nM
Fc1ccc(-c2[nH]c3nc(NCc4ccccc4)ccc3c2-c2ccncc2)cc1 | 300 nM
COc1ccc2c(-c3ccncc3)c(-c3ccc(F)cc3)[nH]c2c1 | 400 nM
COc1ccc2c(-c3ccncc3)c(-c3cccc(Cl)c3)[nH]c2c1 | 125 nM
COc1ccc2c(-c3ccncc3)c(-c3ccc(I)cc3)[nH]c2c1 | 6500 nM
COc1ccc2c(-c3ccncc3)c(-c3cccc(I)c3)[nH]c2c1 | 100 nM
CN(C)c1ccc2c(-c3ccncc3)c(-c3ccc(F)cc3)[nH]c2n1 | 400 nM

Further compounds by falling IC50, results first:

IC50 | Compound
100 nM | CC(=O)Nc1ccc2c(-c3ccncc3)c(-c3ccc(F)cc3)[nH]c2n1
60 nM | CCOc1ccc(-c2[nH]c3nc(N)ccc3c2-c2ccncc2)cc1Cl
40 nM | Nc1ccc2c(-c3ccncc3)c(-c3cccc(I)c3)[nH]c2n1
30 nM | Nc1ccc2c(-c3ccncc3)c(-c3ccc(F)c(F)c3)[nH]c2n1
15 nM | CCCCOc1cc(O)nc2[nH]c(-c3ccc(F)cc3)c(-c3ccncc3)c12
9 nM | Nc1ccc2c(-c3ccncc3)c(-c3cccc(Cl)c3)[nH]c2n1
6 nM | CCCCOc1cc(OC)nc2[nH]c(-c3ccc(F)cc3)c(-c3ccncc3)c12
2 nM | Nc1cc(OCc2ccc(F)cc2)c2c(-c3ccncc3)c(-c3ccc(F)cc3)[nH]c2n1
